As usually defined, the IC50 is the point on the concentration scale where inhibition reaches its midpoint.

Assay type in all cases: cell-based
For data set [1], the system named is MCF-7 cells. Nature of the data set: Free drug cytotoxicity assay, MCF-7 (Table 2). As to conditions: Homo sapiens. The protocol:
(§1) For a 96-hour assay, cells cultured in log-phase growth were seeded for 24 h in 96-well plates containing 150 μL RPMI 1640 supplemented with 20% FBS. Serial dilutions of test article (i.e., free drug) in cell culture media were prepared at 4× working concentration; 50 μL of each dilution was added to the 96-well plates. Following addition of test article, the cells were incubated with test articles for 4 days at 37° C. Resazurin was then added to each well to achieve a 50 μM final concentration, and the plates were incubated for an additional 4 h at 37° C. The plates were then read for the extent of dye reduction on a Fusion HT plate reader (Packard Instruments, Meridien, Conn., USA) with excitation and emission wavelengths of 530 and 590 nm, respectively. The IC50 value, determined in triplicate, is defined here as the concentration that results in a 50% reduction in cell growth relative to untreated controls.
Referring to the following Table 2, the activity of compounds 28, 30 and 32 is shown on L428, 786-O, HEL, HL-60 and MCF-7 cells, as well as the activity for compound 19 on MCF-7 cells.

The test system of the next data set is THP-1 cells. Nature of the data set: Free drug 48 hour Cell Titer Glo cytotoxicity, THP-1. To be noted: Homo sapiens, Table 3, 48 hours, read-out: IC50 Summary for Free Drugs, THP-1. The protocol:
(§2) Referring to the following Table 3, the activities of compounds 23, 25, are compared to that of compound 11 on 786-O, Caki-1, MCF-7, HL-60, THP-1, HEL, and TF1 cells. Cells were plated in 150 μL growth media per well into black-sided clear-bottom 96-well plates (Costar, Corning) and allowed to settle for 1 hour in the biological cabinet before placing in the incubator at 37° C., 5% CO2. The following day, 4× concentration of drug stocks were prepared, and then titrated as 10-fold serial dilutions producing 8-point dose curves and added at 50 μl per well in duplicate. Cells were then incubated for 48 hours at 37° C., 5% CO2. Cytotoxicity was measure by incubating with 100 μL Cell Titer Glo (Promega) solution for 1 hour, and then luminescence was measured on a Fusion HT plate reader (Perkin Elmer). Data was processed with Excel (Microsoft) and GraphPad (Prism) to produce dose response curves and IC50 values were generated and data collected.
(In general: ATP-based viability assays read luminescence as a measure of living cells.)

For the next data set, the system named is HEL cells. Nature of the data set: Free drug 48 hour Cell Titer Glo cytotoxicity, HEL. To be noted: Homo sapiens, Table 3, 48 hours, read-out: IC50 Summary for Free Drugs, HEL. As to the method: as §2
The next data set concerns HL-60 cells. Nature of the data set: Free drug 48 hour Cell Titer Glo cytotoxicity, HL-60. To be noted: Homo sapiens, Table 3, 48 hours, read-out: IC50 Summary for Free Drugs, HL-60. The protocol:
as §2

Data set [2] deals with MCF-7 cells. Nature of the data set: Free drug 48 hour Cell Titer Glo cytotoxicity, MCF-7. As to conditions: Homo sapiens, MCF7, Table 3, 48 hours, read-out: IC50 Summary for Free Drugs, MCF-7. The protocol: as §2
The test system of another data set is TF1a cells. Nature of the data set: Free drug 48 hour Cell Titer Glo cytotoxicity, TF1a. As to conditions: TF-1a, Table 3, 48 hours, read-out: IC50 Summary for Free Drugs, TF1a. As to the method: as §2
Another data set deals with 786-O cells. Nature of the data set: Free drug 48 hour Cell Titer Glo cytotoxicity, 786-O. As to conditions: Homo sapiens, 786-0, Table 3, 48 hours, read-out: IC50 Summary for Free Drugs, 786-O. As to the method: as §2
Another data set relates to Caki-1 cells. Nature of the data set: Free drug 48 hour Cell Titer Glo cytotoxicity, Caki-1. To be noted: Homo sapiens, Table 3, 48 hours, read-out: IC50 Summary for Free Drugs, Caki-1. The protocol: as §2
For data set [3], the system named is K562 human chronic myeloid leukaemia cells. Nature of the data set: K562 assay (MTT cytotoxicity). As to conditions: drug incubation 1 hour or 96 hours. The protocol: K562 human chronic myeloid leukaemia cells were maintained in RPM1 1640 medium supplemented with 10% fetal calf serum and 2 mM glutamine at 37° C. in a humidified atmosphere containing 5% CO2 and were incubated with a specified dose of drug for 1 hour or 96 hours at 37° C. in the dark. The incubation was terminated by centrifugation (5 min, 300 g) and the cells were washed once with drug-free medium. Following the appropriate drug treatment, the cells were transferred to 96-well microtiter plates (10^4 cells per well, 8 wells per sample). Plates were then kept in the dark at 37° C. in a humidified atmosphere containing 5% CO2. The assay is based on the ability of viable cells to reduce a yellow soluble tetrazolium salt, 3-(4,5-dimethylthiazol-2-yl)-2,5-diphenyl-2H-tetrazolium bromide (MTT, Aldrich-Sigma), to an insoluble purple formazan precipitate. Following incubation of the plates for 4 days (to allow control cells to increase in number by approximately 10 fold), 20 μL of MTT solution (5 mg/mL in phosphate-buffered saline) was added to each well and the plates further incubated for 5 h. The plates were then centrifuged for 5 min at 300 g and the bulk of the medium pipetted from the cell pellet leaving 10-20 μL per well. […] The optical density was then read at a wavelength of 550 nm on a Titertek Multiscan ELISA plate reader, and a dose-response curve was constructed. […]

In data set [4] the test system is 786-O renal cell carcinoma cell line (CD70+). Nature of the data set: ADC 96-hour resazurin cytotoxicity assay, 786-O. The protocol: (§3) The in vitro cytotoxic activity of the selected antibody drug conjugates was assessed using a resazurin (Sigma, St. Louis, Mo., USA) reduction assay (reference: Doronina et al., Nature Biotechnology, 2003, 21, 778-784). The antibody drug conjugates were prepared as described above in Example 13.
as §1, with “For the” for “For a”, “of ADC” for “of test article (i.e., free drug)”, “of ADC,” for “of test article,”
In general terms: The colour change of resazurin is a common sign of viable cells or microbes.

Data set [5] has as its system L428 Hodgkin lymphoma cell line (CD70+/30+). Nature of the data set: ADC 96-hour resazurin cytotoxicity assay, L428. The protocol: as §3
as §1, with “For the” for “For a”, “of ADC” for “of test article (i.e., free drug)”, “of ADC,” for “of test article,”

Another data set relates to control (AML cell line). Nature of the data set: ADC 96-hour resazurin cytotoxicity assay, control line of Table 7. As to the method:
as §3
as §1, with “For the” for “For a”, “of ADC” for “of test article (i.e., free drug)”, “of ADC,” for “of test article,”
Referring to Table 7, the in vitro cytotoxicity of ADCs containing PBD dimers on CD70^+ cell lines using the 96 hour assay is shown. […]

As to `COc1ccc(C2=CN3C(=O)c4cc(OC)c(OCCCOc5cc6c(cc5OC)C(=O)N5C=C(c7ccc(CN)cc7)C[C@H]5C=N6)cc4N=C[C@@H]3C2)cc1` [Compound 32, (S)-2-(4-(aminomethyl)phenyl)-7-methoxy-8-(3-((S)-7-methoxy-2-(4-methoxyphenyl)-5-oxo-5,11a-dihydro-1H-pyrrolo[2,1-c][1,4]benzodiazepine-8-yloxy)propyloxy)-1H-pyrrolo[2,1-c][1,4]benzodiazepine-5(11aH)-one], the IC50 with MCF-7 cells [1] (MCF7, read-out: IC50 Summary for Free Drugs, MCF-7) came to 1 nM.
On to `COc1cc2c(cc1OCCCCCOc1cc3c(cc1OC)C(=O)N1C=C(c4cccc(N)c4)C[C@H]1C=N3)N=C[C@@H]1CC(c3ccc(N4CCN(C)CC4)cc3)=CN1C2=O` [Compound 30, (S)-2-(3-aminophenyl)-7-methoxy-8-(5-((S)-7-methoxy-2-(4-(4-methylpiperazin-1-yl)phenyl)-5-oxo-5,11a-dihydro-H-pyrrolo[2,1-c][1,4]benzodiazepin-8-yloxy)pentyloxy)-1H-pyrrolo[2,1-c][1,4]benzodiazepine-5(11aH)-one], for which the IC50 with MCF-7 cells [1] (MCF7, Table 2, read-out: IC50 Summary for Free Drugs, MCF-7) is 0.01 nM.
`COc1ccc(C2=CN3C(=O)c4cc(OC)c(OCCCCCOc5cc6c(cc5OC)C(=O)N5C=C(c7ccc(C=O)cc7)C[C@H]5C=N6)cc4N=C[C@@H]3C2)cc1` [Compound 25, 4-((S)-7-methoxy-8-(5-((S)-7-methoxy-2-(4-methoxyphenyl)-5-oxo-5,11a-dihydro-1H-pyrrolo[2,1-c][1,4]benzodiazepin-8-yloxy)pentyloxy)-5-oxo-5,11a-dihydro-1H-pyrrolo[2,1-c][1,4]benzodiazepine-2-yl)benzaldehyde]: the IC50 with THP-1 cells came out at 0.9 nM; in the data set with HEL cells it was 0.02 nM; in the data set on HL-60 cells it was 0.01 nM; in the data set with MCF-7 cells [2], 0.8 nM; with TF1a cells, 0.9 nM; in the data set with 786-O cells, 0.09 nM. The IC50 in the data set with Caki-1 cells was 0.06 nM.
Regarding `COc1ccc(C2=CN3C(=O)c4cc(OC)c(OCCCCCOc5cc6c(cc5OC)C(=O)N5C=C(c7ccc(O)cc7)C[C@H]5C=N6)cc4N=C[C@@H]3C2)cc1` [Compound 23, (S)-2-(4-hydroxyphenyl)-7-methoxy-8-(5-((S)-7-methoxy-2-(4-methoxyphenyl)-5-oxo-5,11a-dihydro-1H-pyrrolo[2,1-c][1,4]benzodiazepin-8-yloxy)pentyloxy)-1H-pyrrolo[2,1-c][1,4]benzodiazepine-5(11aH)-one], the IC50 was 0.4 nM in the data set on THP-1 cells; 0.009 nM in the data set with HEL cells; 0.005 nM in the data set with HL-60 cells; 0.7 nM in the data set on MCF-7 cells [2]; 0.2 nM in the data set on TF1a cells; 0.06 nM in the data set on 786-O cells. Moreover, in the data set with Caki-1 cells, the IC50 was 0.02 nM.
On to `COc1ccc(C2=CN3C(=O)c4cc(OC)c(OCCCCCOc5cc6c(cc5OC)C(=O)N5C=C(c7ccc(N)cc7)C[C@H]5C=N6)cc4N=C[C@@H]3C2)cc1` [Compound 13, (S)-2-(4-aminophenyl)-7-methoxy-8-(5-((S)-7-methoxy-2-(4-methoxyphenyl)-5-oxo-5,11a-dihydro-1H-pyrrolo[2,1-c][1,4]benzodiazepine-8-yloxy)pentyloxy)-H-pyrrolo[2,1-c][1,4]benzodiazepine-5(11aH)-one], for which the IC50 in [3] came to 0.03 nM.

B1: h1F6-44 (3.5 dr/mAb) (conjugate, chains of the INN, looked up)
VH: QVQLVQSGAEVKKPGASVKVSCKASGYTFTNYGMNWVRQAPGQGLKWMGWINTYTGEPTYADAFKGRVTMTRDTSISTAYMELSRLRSDDTAVYYCARDYGDYGMDYWGQGTTVTVSS
VL: DIVMTQSPDSLAVSLGERATINCRASKSVSTSGYSFMHWYQQKPGQPPKLLIYLASNLESGVPDRFSGSGSGTDFTLTISSLQAEDVAVYYCQHSREVPWTFGQGTKVEIK
modifications: drug-linker 44 conjugate, 3.5 drugs/mAb
In the case of B1, the “In vitro cytotoxic activity (IC50), 786-O” value in data set [4] is 1.124 µg/mL. For the same molecule, the “In vitro cytotoxic activity (IC50), L428” value in data set [5] turned out to be 2.142 µg/mL.

B2: h1F6- 43(4 dr/rnAb) (conjugate, chains of the INN, looked up)
VH: B1 VH
VL: B1 VL
modifications: drug-linker 43, 4 drugs/mAb
On to B2, for which, in data set [4], the “In vitro cytotoxic activity (IC50), 786O” value is 0.011 µg/mL. Also, in the data set with control (AML cell line), the “In vitro cytotoxic activity (IC50), control” value stood at 1.205 µg/mL. In data set [5], the “In vitro cytotoxic activity (IC50), L428” value turned out to be 0.404 µg/mL.

B3: h1F6 54 (4 dr/rnAb) (conjugate, chains of the INN, looked up)
VH: B1 VH
VL: B1 VL
modifications: drug-linker 54, 4 drugs/mAb
Regarding B3, the “In vitro cytotoxic activity (IC50), 786O” value in data set [4] is reported as “No effect”. The “In vitro cytotoxic activity (IC50), control” value in the data set with control (AML cell line) is “No effect”. In addition, the “In vitro cytotoxic activity (IC50), L428” value in data set [5] is on record as “No effect”.
